Reference: patent EP0281245B1, “Cytochrome P-450 enzymes” (Sankyo Company Limited, priority 1987, dated 1988)
Counter-ions that a name gives are not always drawn. Like-named read-outs stand apart in the source and are kept apart here.

Columns and labels:
Assay in all cases: Effect of potential inhibitors and metallic ions on rate of formation of pravastatin sodium from sodium ML-236B carboxylate (method ii)
cytochrome P-450sca-1 = assay type: biochemical, Streptomyces carbophilus; details: for Residual activity of enzyme P-450sca-1: 5 min; for inhibition of cytochrome (in words): each cytochrome
Experimental: (§1) The following cocktail of components is employed:
(§2) The components of the Table are mixed, the solution is shaken at 30°C for 5 minutes, and then 10 »l of 6 N NaOH is added and the reaction stopped. The amount of pravastatin sodium formed by the enzyme system is determined with HPLC.
(§3) The effects of potential inhibitors against cytochrome P-450sca-1 P-450sca-2, P-450sca-3 and the effects of metallic ions on the action of the cytochrome P-450 can be assessed quantitatively using the method (ii).

P-450sca-2 = target: T1, P-450sca-2 (Streptomyces carbophilus, UniProt Q59831); assay type: biochemical; details: for remaining activity at 2000 µM: read-out: Residual activity of enzyme P-450sca-2
T1 construct: made in house; host or cells: Streptomyces carbophilus SANK 62585 (FERM BP-1145), native producer, not recombinant
T1 sequence (Q59831 1-410): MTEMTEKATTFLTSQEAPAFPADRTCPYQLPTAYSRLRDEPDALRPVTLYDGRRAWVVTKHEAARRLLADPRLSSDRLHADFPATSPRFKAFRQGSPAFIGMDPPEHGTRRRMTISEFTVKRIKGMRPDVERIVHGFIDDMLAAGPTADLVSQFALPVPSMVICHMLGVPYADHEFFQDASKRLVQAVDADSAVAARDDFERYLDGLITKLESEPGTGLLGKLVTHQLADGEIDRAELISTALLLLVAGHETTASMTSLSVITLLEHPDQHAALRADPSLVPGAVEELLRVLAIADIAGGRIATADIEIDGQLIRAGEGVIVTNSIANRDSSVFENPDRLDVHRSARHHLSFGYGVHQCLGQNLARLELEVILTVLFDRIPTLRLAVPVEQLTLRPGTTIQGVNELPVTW
Experimental: (§4) (ii) Measurement of rate of formation of pravastatin sodium from sodium ML-236B carboxylate
as §1, §2, §3

P-450sca-3 = assay type: biochemical, Streptomyces carbophilus
Experimental: as §4, §1, §2, §3

Structure (SMILES) | inhibition of cytochrome (in words) (cytochrome P-450sca-1) | Residual activity of enzyme P-450sca-1 (cytochrome P-450sca-1; 1 mM added compound) [%] | Residual activity of enzyme P-450sca-2 (P-450sca-2; 1 mM added compound) [%] | Residual activity of enzyme P-450sca-3 (P-450sca-3; 1 mM added compound) [%] | inhibition of cytochrome (in words) (P-450sca-2; each cytochrome) | inhibition of cytochrome (in words) (P-450sca-3; each cytochrome) | other results
CN/C(=N/CCSCc1nc[nH]c1C)NC#N [Cimetidine] | inhibited | – | – | – | – | – | Residual activity of enzyme P-450sca-1 (cytochrome P-450sca-1; 2 mM added compound): 58.7%; inhibition of cytochrome (in words) (P-450sca-2): inhibited; remaining activity at 2000 µM (P-450sca-2): 45.7%; inhibition of cytochrome (in words) (P-450sca-3): inhibited; Residual activity of enzyme P-450sca-3 (P-450sca-3; 2000 µM): 43.8%
[Ca+2].[Cl-].[Cl-] [CaCl₂] | – | 100.0 | 100.0 | 100.0 | – | – | –
CCCC(C(=O)OCCN(CC)CC)(c1ccccc1)c1ccccc1 [SKF-525A, 2-diethylaminoethyl-2,2-diphenyl valerate hydrochloride] | inhibited | – | – | – | inhibited | inhibited | Residual activity of enzyme P-450sca-1 (cytochrome P-450sca-1; 2 mM added compound): 25.8%; remaining activity at 2000 µM (P-450sca-2; 2 mM added compound): 22.8%; Residual activity of enzyme P-450sca-3 (P-450sca-3; 2 mM added compound): 24.1%
[Cl][Mn][Cl] [MnCl₂] | inhibited | 20.0 | 18.7 | 17.5 | inhibited | inhibited | –
[Cl-].[Cl-].[Co+2] [CoCl₂] | inhibited | 65.0 | 67.5 | 60.1 | inhibited | inhibited | –
[Cl][Cu][Cl] [CuCl₂] | inhibited | 0 | 0 | 0 | inhibited | inhibited | –
[C-]#[O+] [CO, carbon monoxide] | inhibited | – | – | – | inhibited | inhibited | Residual activity of enzyme P-450sca-1 (cytochrome P-450sca-1; CO bubbled in for 1 minute): 50.0%; Residual activity of enzyme P-450sca-2 (P-450sca-2; CO bubbled in for 1 minute): 55.0%; Residual activity of enzyme P-450sca-3 (P-450sca-3; CO bubbled in for 1 minute): 60.4%
